“Also recorded” adds a separate entry of the source. Where two headings read alike, the source gives them in different places.
Biological target: T1, hNpr1 (Homo sapiens, UniProt P16066)
T1 sequence (P16066 33-1061): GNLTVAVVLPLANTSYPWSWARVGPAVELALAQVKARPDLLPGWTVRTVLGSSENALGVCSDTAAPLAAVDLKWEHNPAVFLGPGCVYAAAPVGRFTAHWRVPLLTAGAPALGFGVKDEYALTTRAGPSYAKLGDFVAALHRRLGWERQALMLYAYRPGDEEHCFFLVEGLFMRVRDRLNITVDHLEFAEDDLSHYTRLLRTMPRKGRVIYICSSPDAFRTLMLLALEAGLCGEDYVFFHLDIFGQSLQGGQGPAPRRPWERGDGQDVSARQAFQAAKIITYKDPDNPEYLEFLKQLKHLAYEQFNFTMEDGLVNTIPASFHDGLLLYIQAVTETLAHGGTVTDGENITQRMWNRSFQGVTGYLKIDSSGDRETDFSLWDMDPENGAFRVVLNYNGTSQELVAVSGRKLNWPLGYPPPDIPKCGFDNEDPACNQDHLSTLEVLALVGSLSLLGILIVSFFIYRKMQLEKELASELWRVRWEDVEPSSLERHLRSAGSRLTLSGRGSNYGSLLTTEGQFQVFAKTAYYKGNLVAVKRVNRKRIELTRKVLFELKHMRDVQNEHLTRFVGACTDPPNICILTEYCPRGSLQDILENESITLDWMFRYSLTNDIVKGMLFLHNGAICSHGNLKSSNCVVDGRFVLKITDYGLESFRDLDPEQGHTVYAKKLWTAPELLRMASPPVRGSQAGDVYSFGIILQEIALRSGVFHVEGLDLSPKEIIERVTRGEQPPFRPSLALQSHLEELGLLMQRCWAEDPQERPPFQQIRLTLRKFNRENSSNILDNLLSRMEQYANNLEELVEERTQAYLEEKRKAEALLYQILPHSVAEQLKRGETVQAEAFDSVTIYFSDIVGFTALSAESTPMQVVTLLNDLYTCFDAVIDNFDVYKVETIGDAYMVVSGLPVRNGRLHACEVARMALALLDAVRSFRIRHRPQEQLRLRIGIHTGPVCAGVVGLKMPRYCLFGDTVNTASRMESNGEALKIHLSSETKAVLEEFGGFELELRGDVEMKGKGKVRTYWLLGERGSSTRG
Experiment: qHTS GloSensor cGMP assay, hNppa-stimulated HEK-hNpr1-cGMP-sensor cells (1536-well)
Type: cell-based
Conditions: for Imax, HEK-hNpr1-cGMP-sensor cells: −100% = 38.3 μM A-71915; for Inhibition of hNppa-induced hNpr1 activity (in words): HEK-hNpr1-cGMP-sensor cells
Excerpt: In order to identify small molecular compounds that inhibit the Npr1 receptor a high-throughput assay to probe inhibition of the receptor guanylate cyclase Npr1 was developed. The assay was designed taking advantage of Promega's GloSensor™ technology (Promega, Madison, Wis.). This technology involves the expression of a cyclic guanosine monophosphate (cGMP) biosensor, comprised of a firefly luciferase variant that was coupled to the cGMP binding domain of human phosphodiesterase 5A, and loading of cells with a cell-permeable luciferase substrate to monitor cGMP production by Npr1 in real time in live cells. Briefly, human embryonic kidney 293 cells stably expressing the human Npr1 and the pGloSensor™-40F cGMP vector (“pGloSensor™-40F”) were generated. Stimulating these cells with the Npr1 agonists human NppA or NppB, luciferase-induced light production could be detected in a dose-dependent manner. HEK293 cells stably expressing human Npr2 and pGS-40F and cells only expressing pGS-40F were also generated to conduct secondary counter screens. In these cells, NppC or sodium nitroprusside were used to stimulate Npr2 or soluble guanylate cyclase which is endogenously expressed in HEK293 cells, respectively. The Npr2-NppC counter screen was employed to search for agents that minimally effected this agonist-receptor interaction. The Npr2-NppC system was used because the side effects of most drugs occur on related receptors. Npr1 and Npr2 are the most related receptors in sequence and function and there are no additional active receptor subtypes in this family of receptors. The procedure is described in detail below.
Measurement of intracellular cGMP production in HEK-hNpr1-cGMP-sensor cells was scaled to 4 μl volumes in 1536-well format and primary screening was performed in an automated manner in 7- to 11-point qHTS. Cells (1.5×10^3) were plated in assay medium in white, solid bottom TC treated 1536-well plates (Greiner Bio-One) with a Multidrop™ Combi Reagent Dispenser (Thermo Fisher Scientific). Cells were incubated at 37° C., 5% CO2 and 95% humidity for 16 hours and 1 μl of GloSensor™ reagent at a final assay concentration of 2% or assay medium as background control was added to respective wells with a BioRAPTR Flying Reagent Dispenser™ (Beckman Coulter, Schaumburg, Ill.). Cells were incubated at room temperature for 2 hours, protected from light. Compound (23 nl) was transferred by a pintool (Kalypsys, San Diego, Calif.) in the concentration range of […] to 46.1 μM along with DMSO and a titration of A-71915 from top concentration 38.3 μM to 1.7 nM in columns 1-4 of each plate as vehicle and positive controls, respectively. Cells were incubated with compound for 30 minutes at room temperature, protected from light. Pre-agonist luminescence for each plate was read on a ViewLux™ plate reader (PerkinElmer). Human NppA (1 μl) at a final assay concentration of 0.1 nM, or C02-independent media were added to respective wells with a BioRAPTR Flying Reagent Dispenser™ (Beckman Coulter). Plates were incubated for 20 minutes at room temperature, protected from light, and luminescence was read on a ViewLux™ plate reader.
Pre-agonist and post-agonist data were normalized by plate to corresponding intra-plate controls as described in Inglese et al., PNAS USA, 103: 11473-11478 (2006) (which is incorporated herein by reference, in its entirety). Assay statistics including S:N and Z′ were calculated using the same respective controls. Pre-agonist data were normalized to the average signal of DMSO-treated wells with 2% GoSensor™ reagent as 0% and the average signal of DMSO-treated wells with assay medium as −100% activity. Post-agonist data were normalized to the average signal of DMSO-treated wells with 2% GoSensor™ reagent and 0.1 nM hNppA as 0% and the average signal of wells treated with 38.3 μM A-71915 with 2% GloSensor™ reagent and 0.1 nM hNppA as −100% activity. […]

[1] = Table 1, cell-based GloSensor assay of hNpr1 inhibition, read-out: IC50 GloSensor™ assay
[2] = qHTS follow-up, hNppa-stimulated, four-parameter fit, read-out: IC50, HEK-hNpr1-cGMP-sensor cells
[3] = qHTS follow-up, hNppa-stimulated

Compound | IC50 [1] | IC50 [2] | Imax, HEK-hNpr1-cGMP-sensor cells [3] | Inhibition of hNppa-induced hNpr1 activity (in words)
COc1ccccc1-c1n[nH]c2ncc(C(=O)NCc3cccnc3)nc12 [JS-6, 3-(2-methoxyphenyl)-N-(pyridin-3-ylmethyl)-1H-pyrazolo[3,4-b]pyrazine-5-carboxamide] | 11.2 µM | 24 ± 1.2 µM | −15 ± 3% | –
N#Cc1ccccc1CN1CCCC(C(=O)NCc2ccccc2)CCNC(=O)CC1 (stereo not drawn) [JS-13, N-benzyl-1-(2-cyanobenzyl)-4-oxo-1,5-diazacycloundecane-8-carboxamide] | 3.98 µM | 10 ± 1.2 µM | −99 ± 6% | –
CN(Cc1ccccc1)C(=O)c1cn2ccnc(-c3ccccc3)c2n1 [JS-14, N-benzyl-N-methyl-8-phenylimidazo[1,2-a]pyrazine-2-carboxamide] | 6.31 µM | 117 ± 75 µM | −286 ± 966% | –
COc1ccc(C2(C(=O)N3CCC4(CC3)c3nccn3-c3ccccc3CN4C)CC2)cc1 [JS-12, (1-(4-methoxyphenyl)cyclopropyl)(5-methyl-5,6-dihydrospiro[benzo[f]imidazo[1,2-a][1,4]diazepine-4,4′-piperidin]-1′-yl)methanone] | 8.91 µM | 16 ± 1.3 µM | −116 ± 11% | –
Cl.O=C1Nc2ccccc2CN(CC2CCCCC2)C12CCNCC2 [JS-1, 4-(cyclohexylmethyl)-4,5-dihydrospiro[benzo[e][1,4]diazepine-3,4′-piperidin]-2(1H)-one hydrochloride] | 7.31 µM | 26 ± 1.5 µM | −119 ± 20% | –
COc1cc(CN2CCC(C)(NC(C)=O)CC2)cc(-c2ccncc2)c1 [JS-4, N-(1-(3-methoxy-5-(pyridin-4-yl)benzyl)-4-methylpiperidin-4-yl)acetamide] | 14.1 µM | 16 ± 13 µM | −110 ± 10% | –
Cc1nn2c(c1-c1ccccc1Oc1ccccc1)N(C(=O)Cc1ccc3c(c1)OCO3)CCC2 [JS-10, 2-(benzo[d][1,3]dioxol-5-yl)-1-(2-methyl-3-(2-phenoxyphenyl)-6,7-dihydropyrazolo[1,5-a]pyrimidin-4(5H)-yl)ethan-1-one] | 7.94 µM | 17 ± 1.3 µM | −122 ± 12% | –
Cc1nn2c(c1-c1ccccc1OCc1ccccc1)N(C(=O)Cc1ccccn1)CCC2 [JS-9, 1-(3-(2-(benzyloxy)phenyl)-2-methyl-6,7-dihydropyrazolo[1,5-a]pyrimidin-4(5H)-yl)-2-(pyridin-2-yl)ethan-1-one] | 8.91 µM | 35 ± 15 µM | −106 ± 18% | –
O=C(NCc1cccnc1)c1cnc2[nH]nc(-c3ccccc3)c2n1 [JS-7, 3-phenyl-N-(pyridin-3-ylmethyl)-1H-pyrazolo[3,4-b]pyrazine-5-carboxamide] | 22.4 µM | 85 ± 22 µM | −216 ± 97% | –
O=C(Cc1ccc(Cl)cc1)N1Cc2ccccc2CC2(CCCN2CC2CCNC2)C1 (stereo not drawn) [JS-2, 2-(4-chlorophenyl)-1-(1′-(pyrrolidin-3-ylmethyl)-1,5-dihydrospiro[benzo[c]azepine-4,2′-pyrrolidin]-2(3H)-yl)ethan-1-one] | 13 µM | 25 ± 1.3 µM | −102 ± 9% | –
Cc1cc(CNC(=O)c2ccc3c(c2)n(CC2CC2)c(=O)n3C2CCCCC2)on1 [JS-11, 1-cyclohexyl-3-(cyclopropylmethyl)-N-((3-methylisoxazol-5-yl)methyl)-2-oxo-2,3-dihydro-1H-benzo[d]imidazole-5-carboxamide] | 5.62 µM | 21 ± 1.3 µM | −140 ± 13% | inhibit hNpr1 activity; also recorded: inhibits hNppa-induced hNpr1 activity; also recorded: antagonizes natriuretic peptide-induced activation
Cc1noc(C)c1-c1cc(-c2ccccc2Oc2ccccc2)cn2cncc12 [JS-5, 3,5-dimethyl-4-(6-(2-phenoxyphenyl)imidazo[1,5-a]pyridin-8-yl)isoxazole] | 28.2 µM | 32 ± 13 µM | −127 ± 12% | inhibit hNpr1 activity; also recorded: inhibits hNppa-induced hNpr1 activity; also recorded: antagonizes natriuretic peptide-induced activation
CCC(CC)c1cc([C@H]2CN3CC[C@H]2C[C@@H]3CNS(=O)(=O)c2cccs2)nc(-c2ccncc2)n1 [JS-3, N-(((2R,4S,5R)-5-(6-(pentan-3-yl)-2-(pyridin-4-yl)pyrimidin-4-yl)quinuclidin-2-yl)methyl)thiophene-2-sulfonamide] | 14.1 µM | 62 ± 19 µM | −183 ± 67% | –
Cc1nn2c(c1-c1ccccc1OCc1ccccc1)N(C(=O)Cc1ccc3c(c1)OCO3)CCC2 [JS-8, 2-(benzo[d][1,3]dioxol-5-yl)-1-(3-(2-(benzyloxy)phenyl)-2-methyl-6,7-dihydropyrazolo[1,5-a]pyrimidin-4(5H)-yl)ethan-1-one] | 8.91 µM | 13 ± 1.2 µM | −122 ± 9% | inhibit hNpr1 activity; also recorded: inhibits hNppa-induced hNpr1 activity; also recorded: antagonizes natriuretic peptide-induced activation

— patent US11324725B2, “Compositions and methods for the inhibition of pruritus” (The United States of America, as represented by the …, priority 2017, dated 2022)
